Source: ChEMBL document CHEMBL5346945, “Discovery and Optimization of the First ATP Competitive Type-III c-MET Inhibitor” (J Med Chem, 2023)

Columns and labels:
[1] = Metabolic stability in human liver microsomes assessed as intrinsic clearance at 1 uM preincubated with NADPH for 8 mins followed by compound addition measured at 0.5 to 30 mins by LC-MS/MS analysis; format: ADME, Microsome; details: time 0.5-30 min, read-out: CLH
[2] = Lipophilicity, logD of compound in octanol and water at pH 7.4 measured by shake-flask method; format: physicochemical
[3] = biological target: T1, Hepatocyte growth factor receptor (Homo sapiens, UniProt P08581); assay: Binding affinity to wild type c-MET (unknown origin) assessed as dissociation constant measured for 120 sec by SPR analysis
T1 sequence (P08581 whole entry): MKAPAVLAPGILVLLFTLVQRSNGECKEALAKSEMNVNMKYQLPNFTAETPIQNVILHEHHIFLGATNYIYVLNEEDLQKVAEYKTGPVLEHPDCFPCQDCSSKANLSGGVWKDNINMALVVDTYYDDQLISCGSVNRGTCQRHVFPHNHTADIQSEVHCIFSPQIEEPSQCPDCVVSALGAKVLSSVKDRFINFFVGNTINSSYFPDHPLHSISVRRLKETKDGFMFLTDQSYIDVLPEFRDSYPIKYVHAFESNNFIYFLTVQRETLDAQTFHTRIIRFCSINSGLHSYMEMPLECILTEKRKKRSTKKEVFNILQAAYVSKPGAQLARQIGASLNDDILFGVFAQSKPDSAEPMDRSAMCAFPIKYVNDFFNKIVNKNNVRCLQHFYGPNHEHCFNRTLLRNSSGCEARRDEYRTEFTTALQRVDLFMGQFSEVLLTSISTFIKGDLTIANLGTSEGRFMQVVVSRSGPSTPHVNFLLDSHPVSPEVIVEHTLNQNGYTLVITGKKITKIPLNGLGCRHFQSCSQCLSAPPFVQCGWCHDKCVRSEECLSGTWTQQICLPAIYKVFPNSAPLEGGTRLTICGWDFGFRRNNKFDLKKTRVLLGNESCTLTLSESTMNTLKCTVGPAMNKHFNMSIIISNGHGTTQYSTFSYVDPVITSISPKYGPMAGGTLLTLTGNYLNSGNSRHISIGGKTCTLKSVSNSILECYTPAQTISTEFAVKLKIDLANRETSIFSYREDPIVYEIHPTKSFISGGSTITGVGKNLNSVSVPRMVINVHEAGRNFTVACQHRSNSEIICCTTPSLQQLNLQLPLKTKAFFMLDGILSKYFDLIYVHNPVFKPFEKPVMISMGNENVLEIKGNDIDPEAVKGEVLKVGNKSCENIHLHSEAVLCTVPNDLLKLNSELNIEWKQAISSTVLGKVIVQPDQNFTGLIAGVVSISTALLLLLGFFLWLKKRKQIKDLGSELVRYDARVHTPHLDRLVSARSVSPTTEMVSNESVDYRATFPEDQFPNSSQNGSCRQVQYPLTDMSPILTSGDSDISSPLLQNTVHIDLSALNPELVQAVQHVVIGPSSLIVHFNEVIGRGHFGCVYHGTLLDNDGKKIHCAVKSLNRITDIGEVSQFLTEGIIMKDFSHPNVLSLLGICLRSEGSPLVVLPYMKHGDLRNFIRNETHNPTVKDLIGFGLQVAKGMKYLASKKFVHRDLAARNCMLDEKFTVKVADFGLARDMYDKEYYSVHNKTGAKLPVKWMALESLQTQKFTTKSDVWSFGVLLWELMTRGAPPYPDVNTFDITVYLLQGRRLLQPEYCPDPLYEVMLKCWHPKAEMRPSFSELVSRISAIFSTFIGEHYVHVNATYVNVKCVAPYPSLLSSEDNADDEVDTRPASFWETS

[4] = Metabolic stability in Han Wistar rat hepatocytes assessed as intrinsic clearance measured per million cells at 1 uM measured at 0.5 to 2 hrs by LC-MS/MS analysis; format: ADME, cell-based, Hepatocyte; details: time 0.5-2 hrs, read-out: CLH
[5] = biological target: T1, Hepatocyte growth factor receptor; assay: Inhibition of wild type c-MET (unknown origin) using ATP and poly(L-glutamic acid-L-tyrosine) as substrate incubated for 60 mins measured by ADP-Glo kinase assay
[6] = biological target: T1, Hepatocyte growth factor receptor; assay: Inhibition of wild type c-MET in human NCI-H1993 cells incubated for 4 hrs measured by HTRF assay; format: cell-based
[7] = Ratio of drug concentration in brain to plasma of Han Wistar rat plasma at 2 micromol/kg per hour measured after 4 hrs by LC-MS/MS analysis; format: ADME; details: dose 2 µmol/kg
[8] = Oral bioavailability in Han Wistar rat plasma at 1 mg/kg, measured for 1 to 24 hrs by LC-MS/MS analysis; format: ADME, organism-based; details: in vivo, time 1-24 hrs
[9] = Metabolic stability in human hepatocytes assessed as intrinsic clearance measured per million cells at 1 uM measured at 0.5 to 2 hrs by LC-MS/MS analysis; format: ADME, cell-based, Hepatocyte; details: time 0.5-2 hrs, read-out: CLH
[10] = Volume of distribution at steady state in Han Wistar rat plasma at 1 mg/kg, po or 0.5 mg/kg, iv measured for 1 to 24 hrs by LC-MS/MS analysis; format: ADME, organism-based; details: in vivo, time 1-24 hrs
[11] = Permeability across basolateral to apical side in MDCK cells at 10 uM by LC-MS/MS analysis; format: ADME, cell-based, Canis lupus familiaris; details: dog, read-out: permeability
[12] = biological target: Tyrosine-protein kinase receptor UFO (Homo sapiens) (UniProt P30530); details: dose 100.0 nM
Chain of Tyrosine-protein kinase receptor UFO (Homo sapiens) (P30530 whole entry): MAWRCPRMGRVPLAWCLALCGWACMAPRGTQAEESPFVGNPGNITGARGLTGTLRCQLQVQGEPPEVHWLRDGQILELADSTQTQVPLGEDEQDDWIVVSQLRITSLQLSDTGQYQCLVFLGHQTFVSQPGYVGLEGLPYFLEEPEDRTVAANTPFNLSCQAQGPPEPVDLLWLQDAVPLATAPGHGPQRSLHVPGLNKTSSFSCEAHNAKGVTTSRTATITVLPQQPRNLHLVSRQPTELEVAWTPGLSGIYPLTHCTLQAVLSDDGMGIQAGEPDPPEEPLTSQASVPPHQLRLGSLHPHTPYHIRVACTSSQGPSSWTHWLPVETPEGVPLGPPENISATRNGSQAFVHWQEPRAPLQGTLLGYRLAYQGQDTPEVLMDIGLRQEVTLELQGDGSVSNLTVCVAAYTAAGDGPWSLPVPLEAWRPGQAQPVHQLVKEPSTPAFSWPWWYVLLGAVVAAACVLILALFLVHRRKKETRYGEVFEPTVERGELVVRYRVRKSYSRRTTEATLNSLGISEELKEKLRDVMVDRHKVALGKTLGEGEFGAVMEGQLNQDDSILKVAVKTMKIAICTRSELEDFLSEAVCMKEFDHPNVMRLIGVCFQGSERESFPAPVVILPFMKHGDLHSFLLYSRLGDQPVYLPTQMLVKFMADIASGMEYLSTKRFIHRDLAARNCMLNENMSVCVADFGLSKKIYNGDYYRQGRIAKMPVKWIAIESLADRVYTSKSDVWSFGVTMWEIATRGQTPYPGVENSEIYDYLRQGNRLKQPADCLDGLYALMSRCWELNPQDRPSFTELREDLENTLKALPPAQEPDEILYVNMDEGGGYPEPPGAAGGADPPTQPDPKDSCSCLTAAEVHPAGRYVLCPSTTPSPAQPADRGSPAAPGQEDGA
Description: Inhibition of AXL (unknown origin) at 100 nM relative to control

[13] = biological target: Macrophage-stimulating protein receptor (Homo sapiens) (UniProt Q04912); details: dose 100.0 nM
Chain of Macrophage-stimulating protein receptor (Homo sapiens) (Q04912 25-304 limits assumed): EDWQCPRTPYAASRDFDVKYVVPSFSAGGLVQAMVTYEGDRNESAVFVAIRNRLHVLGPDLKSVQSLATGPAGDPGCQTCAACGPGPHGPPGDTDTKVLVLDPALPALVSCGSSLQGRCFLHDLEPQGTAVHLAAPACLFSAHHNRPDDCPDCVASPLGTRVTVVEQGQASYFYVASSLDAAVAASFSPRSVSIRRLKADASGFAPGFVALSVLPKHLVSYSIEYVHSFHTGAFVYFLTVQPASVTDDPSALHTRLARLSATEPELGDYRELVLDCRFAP
Chain of Macrophage-stimulating protein receptor (Homo sapiens) (Q04912 310-1400 limits assumed): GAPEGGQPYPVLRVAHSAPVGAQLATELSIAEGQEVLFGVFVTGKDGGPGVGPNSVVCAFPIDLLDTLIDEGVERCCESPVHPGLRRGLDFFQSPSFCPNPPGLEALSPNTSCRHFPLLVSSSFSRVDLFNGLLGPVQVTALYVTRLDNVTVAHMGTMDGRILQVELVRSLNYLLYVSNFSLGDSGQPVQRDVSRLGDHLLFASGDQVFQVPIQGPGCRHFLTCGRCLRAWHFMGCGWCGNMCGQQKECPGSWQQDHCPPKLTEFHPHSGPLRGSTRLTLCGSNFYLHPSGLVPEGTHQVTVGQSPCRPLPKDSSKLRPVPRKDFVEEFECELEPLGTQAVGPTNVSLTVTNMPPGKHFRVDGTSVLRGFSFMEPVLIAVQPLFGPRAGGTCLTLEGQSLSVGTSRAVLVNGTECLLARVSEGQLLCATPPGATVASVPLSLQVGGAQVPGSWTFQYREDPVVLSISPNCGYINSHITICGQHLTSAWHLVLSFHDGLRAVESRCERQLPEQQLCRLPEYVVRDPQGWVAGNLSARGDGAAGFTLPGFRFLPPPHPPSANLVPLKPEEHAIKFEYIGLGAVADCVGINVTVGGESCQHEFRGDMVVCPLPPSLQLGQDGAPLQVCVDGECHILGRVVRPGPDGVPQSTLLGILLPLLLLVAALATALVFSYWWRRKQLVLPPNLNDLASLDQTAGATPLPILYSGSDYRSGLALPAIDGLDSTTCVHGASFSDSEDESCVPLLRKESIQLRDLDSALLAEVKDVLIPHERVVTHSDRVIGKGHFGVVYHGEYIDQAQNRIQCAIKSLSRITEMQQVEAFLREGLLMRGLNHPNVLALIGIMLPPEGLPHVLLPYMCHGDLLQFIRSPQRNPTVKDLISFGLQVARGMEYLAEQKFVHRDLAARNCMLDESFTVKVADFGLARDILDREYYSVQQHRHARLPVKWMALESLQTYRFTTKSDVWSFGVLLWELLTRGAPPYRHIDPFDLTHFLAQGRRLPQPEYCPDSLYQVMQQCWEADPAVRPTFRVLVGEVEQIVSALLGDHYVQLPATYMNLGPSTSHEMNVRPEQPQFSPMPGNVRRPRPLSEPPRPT
Description: Inhibition of MST1R (unknown origin) at 100 nM relative to control

[14] = biological target: T1, Hepatocyte growth factor receptor; details: dose 100.0 nM
Description: Inhibition of c-MET (unknown origin) at 100 nM relative to control

[15] = biological target: T2, Tyrosine-protein kinase Mer (Homo sapiens) (UniProt Q12866); details: dose 100.0 nM
T2 sequence (whole entry): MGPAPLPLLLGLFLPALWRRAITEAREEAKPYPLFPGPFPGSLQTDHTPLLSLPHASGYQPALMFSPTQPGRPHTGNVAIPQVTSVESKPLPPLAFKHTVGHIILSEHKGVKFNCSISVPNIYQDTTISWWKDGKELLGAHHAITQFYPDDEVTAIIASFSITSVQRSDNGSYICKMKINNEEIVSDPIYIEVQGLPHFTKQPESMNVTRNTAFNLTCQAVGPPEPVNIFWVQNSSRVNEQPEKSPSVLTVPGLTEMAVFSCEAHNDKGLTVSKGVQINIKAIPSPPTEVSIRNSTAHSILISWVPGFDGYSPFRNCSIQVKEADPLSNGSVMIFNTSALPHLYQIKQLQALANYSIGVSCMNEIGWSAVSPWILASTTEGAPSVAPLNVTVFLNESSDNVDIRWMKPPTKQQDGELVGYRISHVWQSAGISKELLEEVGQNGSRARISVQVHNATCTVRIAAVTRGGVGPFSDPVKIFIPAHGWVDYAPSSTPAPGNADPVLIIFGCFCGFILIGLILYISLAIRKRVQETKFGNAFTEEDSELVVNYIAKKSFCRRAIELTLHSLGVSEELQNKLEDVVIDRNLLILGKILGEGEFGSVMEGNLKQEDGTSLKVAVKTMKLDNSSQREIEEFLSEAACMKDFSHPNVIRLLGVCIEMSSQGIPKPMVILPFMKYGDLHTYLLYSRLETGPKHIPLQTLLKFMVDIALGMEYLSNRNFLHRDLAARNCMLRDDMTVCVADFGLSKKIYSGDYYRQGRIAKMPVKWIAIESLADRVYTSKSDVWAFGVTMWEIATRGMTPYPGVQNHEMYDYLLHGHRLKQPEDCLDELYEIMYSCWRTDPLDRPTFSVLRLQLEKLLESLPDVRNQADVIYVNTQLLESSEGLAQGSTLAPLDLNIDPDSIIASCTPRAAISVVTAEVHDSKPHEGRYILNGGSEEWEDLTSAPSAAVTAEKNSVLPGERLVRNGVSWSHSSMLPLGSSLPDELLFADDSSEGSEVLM
Description: Inhibition of MERTK (unknown origin) at 100 nM relative to control

Compound	microsomal CLint at 1 µM [1] [µL/min/mg]	logD [2]	Kd [3] [nM]	hepatocyte CLint at 1 µM [4] [µL/min/1e6 cells]	IC50 [5] [nM]	further results
CC(c1ccccc1Cl)n1cc(-c2cc(F)cc(F)c2)c(=O)[nH]c1=O (stereo unspecified)	38.3	3.6	36000	227		
CC(c1ccccc1)n1cc(-c2c(F)ccc3cn[nH]c23)c(=O)[nH]c1=O (stereo unspecified)	7.35	2.5	440	28.3	2200	
C#Cc1n[nH]c2c(-c3cn(C(C)c4ccccc4)c(=O)[nH]c3=O)cc(F)cc12 (stereo unspecified)		3.3			31	EC50 [6]: 1950 nM; K(p,uu,brain) [7]: 0.1; F [8]: 100%; hepatocyte CLint at 1 µM [9]: 4.27 µL/min/1e6 cells; Vdss [10]: 4.6 L/kg; Papp B→A at 10 µM [11]: 14.2 ×10⁻⁶ cm/s
CC(c1ccccc1)n1cc(-c2cccc3cn[nH]c23)c(=O)[nH]c1=O (stereo unspecified)	6.13	2.4	240	46.1	1300	
CC(c1cccc(Cl)c1)n1cc(-c2cc(F)cc(F)c2)c(=O)[nH]c1=O (stereo unspecified)	27.4	3.8	1000	177		
CC(c1ccccc1)n1cc(-c2ncccn2)c(=O)[nH]c1=O (stereo unspecified)	< 3	0.85	2700	4.67		
C#Cc1n[nH]c2c(-c3cn([C@@H](C)c4ccccc4)c(=O)[nH]c3=O)cc(F)cc12	< 3	3.4		15	13	EC50 [6]: 1170 nM; inhibition [12]: < 50%; inhibition [13]: < 50%; inhibition [14]: 80%; inhibition [15]: 80%
CC(c1ccc(F)cc1)n1cc(-c2cc(F)cc3cn[nH]c23)c(=O)[nH]c1=O (stereo unspecified)	5.61	2.7		11.9	530	
C#Cc1n[nH]c2c(-c3cn(C(C)c4ccccc4)c(=O)[nH]c3=O)cccc12 (stereo unspecified)	12.8	3.2		9.1	40	
CC(c1ccccc1)n1cc(-c2cc(F)cc3c(C#N)n[nH]c23)c(=O)[nH]c1=O (stereo unspecified)	11.4	3.1	87	51.4	130	
CC(c1cccc(-c2cn[nH]c2)c1)n1cc(-c2cc(F)cc(F)c2)c(=O)[nH]c1=O (stereo unspecified)	< 3	3.4	800	22.3		
C[C@@H](c1ccc(F)cc1)n1cc(-c2cc(F)cc3c(C#N)n[nH]c23)c(=O)[nH]c1=O		3.3			75	K(p,uu,brain) [7]: 0.014; F [8]: 96%; hepatocyte CLint at 1 µM [9]: 2.48 µL/min/1e6 cells; Vdss [10]: 1.5 L/kg; Papp B→A at 10 µM [11]: 25.6 ×10⁻⁶ cm/s
CC(c1cccc(-c2c[nH]cn2)c1)n1cc(-c2cccc3cn[nH]c23)c(=O)[nH]c1=O (stereo unspecified)	8.92	2.3	460	5.84		
CC(c1ccccn1)n1cc(-c2cc(F)cc3c(C#N)n[nH]c23)c(=O)[nH]c1=O (stereo unspecified)	< 3	2.1		3.08	1200	EC50 [6]: > 29800 nM
Cc1n[nH]c2c(-c3cn(C(C)c4ccccc4)c(=O)[nH]c3=O)cccc12 (stereo unspecified)	17.8	2.7	180	37	430	
CC(c1ccccc1)n1cc(-c2cc(F)cc(F)c2)c(=O)[nH]c1=O (stereo unspecified)	17.8	3.2	2500	123		
CC(c1ccccc1)n1cc(-c2cc(F)cc3cn[nH]c23)c(=O)[nH]c1=O (stereo unspecified)	4.04	2.5	120	14	400	
O=c1[nH]c(=O)n(Cc2ccccc2)cc1-c1cc(F)cc(F)c1	20.6	3	> 100000	76.7		
CC(c1ccccc1)n1cc(-c2ccc3[nH]ccc3c2)c(=O)[nH]c1=O (stereo unspecified)	25.4	2.9	520	217		
C#Cc1n[nH]c2c(-c3cn(C(C)c4ccccn4)c(=O)[nH]c3=O)cc(F)cc12 (stereo unspecified)		2.5			55	K(p,uu,brain) [7]: 0.022; F [8]: 91%; hepatocyte CLint at 1 µM [9]: 1.29 µL/min/1e6 cells; Vdss [10]: 1.6 L/kg; Papp B→A at 10 µM [11]: 37.9 ×10⁻⁶ cm/s
CC(c1ccc(F)cc1)n1cc(-c2cc(F)cc3c(C#N)n[nH]c23)c(=O)[nH]c1=O (stereo unspecified)	< 3	3.2		4.4	310	EC50 [6]: 18700 nM
C[C@@H](c1ccc(F)cc1)n1cc(-c2cc(F)cc3cn[nH]c23)c(=O)[nH]c1=O		2.8			150	K(p,uu,brain) [7]: 0.11; F [8]: 57%; hepatocyte CLint at 1 µM [9]: 1.81 µL/min/1e6 cells; Vdss [10]: 4.3 L/kg; Papp B→A at 10 µM [11]: 22.4 ×10⁻⁶ cm/s
CC(c1ccccc1)n1cc(-c2cccc3c(F)n[nH]c23)c(=O)[nH]c1=O (stereo unspecified)	32.4	3	240	49.4	810	
CC(c1cccc(-c2cc[nH]n2)c1)n1cc(-c2cc(F)cc(F)c2)c(=O)[nH]c1=O (stereo unspecified)	5.04	3.5	2600	24.7		
C[C@@H](c1ccccc1)n1cc(-c2cc(F)cc(F)c2)c(=O)[nH]c1=O	7.68	3.1	920	133		
CC(c1ccc(F)cc1)n1cc(-c2cc(F)cc(F)c2)c(=O)[nH]c1=O (stereo unspecified)	17.4		1200	26.8		
CC(c1cccc(-c2c[nH]cn2)c1)n1cc(-c2cc(F)cc(F)c2)c(=O)[nH]c1=O (stereo unspecified)	16.2	3.2	520	6.03		
CC(c1ccccc1)n1cc(-c2ccccn2)c(=O)[nH]c1=O (stereo unspecified)	12.6	2.2	4500	300		
CC(c1ccccc1)n1cc(-c2ccccc2)c(=O)[nH]c1=O (stereo unspecified)	50.1	2.7	3900	185		
CC(c1ccccc1)n1cc(-c2cccc3c(C#N)n[nH]c23)c(=O)[nH]c1=O (stereo unspecified)	32.7	2.9	200	41.4	500	
